The first assay deals with T1, Telomeric repeat-binding factor 2 (Homo sapiens, UniProt Q15554).
T1 sequence (Q15554 whole entry): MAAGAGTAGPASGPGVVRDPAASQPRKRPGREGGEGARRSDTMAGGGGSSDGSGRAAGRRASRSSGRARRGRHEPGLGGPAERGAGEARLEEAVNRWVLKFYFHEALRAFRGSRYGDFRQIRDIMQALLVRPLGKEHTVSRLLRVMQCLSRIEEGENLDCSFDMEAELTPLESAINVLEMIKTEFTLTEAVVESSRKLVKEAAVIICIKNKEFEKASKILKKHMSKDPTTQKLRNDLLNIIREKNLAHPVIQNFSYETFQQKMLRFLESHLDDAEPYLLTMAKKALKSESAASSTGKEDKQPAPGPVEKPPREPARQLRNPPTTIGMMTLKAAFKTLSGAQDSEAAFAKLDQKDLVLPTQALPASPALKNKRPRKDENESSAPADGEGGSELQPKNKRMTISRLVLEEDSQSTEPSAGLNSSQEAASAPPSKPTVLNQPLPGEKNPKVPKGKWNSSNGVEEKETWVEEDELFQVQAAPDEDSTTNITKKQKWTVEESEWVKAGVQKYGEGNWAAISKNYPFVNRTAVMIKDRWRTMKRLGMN
The assay is described as follows: Binding affinity to biotinylated TRF2 (unknown origin) by biolayer interferometry assay. (In general: BLI is a label-free optical method that tracks binding on a fibre tip over time.)
On to `CC(C)C[C@@H]1NC(=O)[C@@H](NC(=O)c2cc(OCc3ccccc3)cc(OCC3CC3)c2)COCCCCOC[C@@H](C(=O)N(C)C)NC(=O)[C@@H]2CCCN2C(=O)[C@H](C)NC1=O`, for which binding was characterised by a dissociation constant (Kd) of 2500 nM.

The next assay concerns the target T1, Telomeric repeat-binding factor 2. The assay is described as follows: Binding affinity to TRFH domain of TRF2 (residues 42 to 245) (unknown origin) by FP based assay.
`CC(C)C[C@@H]1NC(=O)[C@@H](NC(=O)c2cc(OCc3ccccc3)cc(OC(C)C)c2)COCCCCOC[C@@H](C(=O)N(C)C)NC(=O)[C@@H]2CCCN2C(=O)[C@H](C)NC1=O`: the Ki (as a rule, a dissociation constant, usually derived from enzyme kinetics or from competition with a known ligand) came to 11 µM.

`CC(C)C[C@@H]1NC(=O)[C@@H](NC(=O)c2cc(OCc3ccccc3)cc(OCC3CCCC3)c2)COCCCCOC[C@@H](C(=O)N(C)C)NC(=O)[C@@H]2CCCN2C(=O)[C@H](C)NC1=O`: the Ki turned out to be 6.9 µM.

As for `CC(C)C[C@@H]1NC(=O)[C@@H](NC(=O)c2cc(OCc3ccccc3)cc(OCC3CC3)c2)COCCCCOC[C@@H](C(=O)N(C)C)NC(=O)[C@@H]2CCCN2C(=O)[C@H](C)NC1=O`, the inhibition constant Ki amounted to 4.2 µM.

Consider `CC(C)C[C@@H]1NC(=O)[C@@H](NC(=O)c2cc(OCc3ccccc3)cc(OC3CCCC3)c2)COCCCCOC[C@@H](C(=O)N(C)C)NC(=O)[C@@H]2CCCN2C(=O)[C@H](C)NC1=O`, for which the Ki was 5.1 µM.

Turning to `CC(C)C[C@@H]1NC(=O)[C@@H](NC(=O)c2cc(OCCN)cc(OCc3ccccc3)c2)COCCCCOC[C@@H](C(=O)N(C)C)NC(=O)[C@@H]2CCCN2C(=O)[C@H](C)NC1=O`, affinity was put at a Ki of 35 µM.

`CC(C)C[C@@H]1NC(=O)[C@@H](NC(=O)c2cc(OCc3ccccc3)cc(OC3CCC3)c2)COCCCCOC[C@@H](C(=O)N(C)C)NC(=O)[C@@H]2CCCN2C(=O)[C@H](C)NC1=O` gave a Ki of 4.9 µM.

The compound `CC(C)C[C@@H]1NC(=O)[C@@H](NC(=O)c2cc(OCc3ccccc3)cc(OCC3CCC3)c2)COCCCCOC[C@@H](C(=O)N(C)C)NC(=O)[C@@H]2CCCN2C(=O)[C@H](C)NC1=O` showed a Ki of 4.3 µM.

Regarding Ac-LALKYLLTPV-NH2, the Ki came out at 0.33 µM.

Values taken from ChEMBL document CHEMBL4665783, “N-terminal modified cyclopeptidic mimetics of Apollo as inhibitors of TRF2” (Bioorg Med Chem Lett, 2020).
